The results in this text go back to article PMC8635542, “Pharmacokinetic study on the interaction between succinic acid and irbesartan in rats and its potential mechanism” (Pharmaceutical Biology, 2021).

For the assay, the system named is T1, CYP2C9.
T1 construct: gene Cyp2c6
The conditions noted are these: diclofenac as substrate, NADPH-regenerating system (G-6-P, NADP+, G-6-PDH), MgCl2; succinic acid 0-100 μM.

Structures are written as SMILES.

One may read the IC50 as the concentration that inhibits the measured activity by half. As for `O=C(O)CCC(=O)O` [succinic acid], the midpoint of inhibition, the IC50, lay at 13.9 µM.
